From article PMC5859730, “Dual targeting of the cancer antioxidant network with 1,4-naphthoquinone fused Gold(I) N-heterocyclic carbene complexes” (Chemical Science, 2017)
Read-outs that look alike come from different tables or passages of the source.

How the values were obtained:
A549 cells [1] = assay: Detection of intracellular ROS by flow cytometry (CM-H2DCFDA); assay type: cell-based, human; conditions: A549, 2.5 μM, 6 h incubation, CM-H2DCFDA
A549 cancer cells = assay: Confocal microscopy of ROS localisation; assay type: cell-based, human; conditions: A549, 1.25 μM, 4 h
Experimental: To further elucidate the subcellular loci of ROS accentuation, confocal microscopy was employed to fluorescently image A549 cancer cells treated with vehicle (DMSO) and 1.25 μM complex 1 (Fig. 7d). All cells were selectively stained for visualization of ROS accentuation (green, CM-H2DCFDA), mitochondria (red, Mitotracker Red), and nuclei (blue, Hoechst).
Serum Protein Binding Studies.
aliquots were stored at -80°C.
in an Edvotek microcentrifuge. […] Samples
Detection of ROS by Flow Cytometry.
cells were treated with vehicle only.
g) at 5 °C. […] The pellet was
Control samples of unstained cells,
overnight. […] Post incubation, the media was
After incubation, the dye-
Cells were then imaged fluorescently
Lipoate Inhibition Assays.
well culture plates. […] The next day, appropriate
were added to each well. […] Afterwards, the liquid was then

A549 lung cancer cells [2] = assay: ICP-MS detection of intracellular Au (cellular uptake)
[3] = system: DNA duplex (5'CCGCAGCCA3'/5'TGGCTGCGG3'); assay: Thermal denaturation of a DNA duplex; assay type: binding; conditions: 1 molar equivalent, 5 μM complex and duplex
[4] = system: thioredoxin reductase (TrxR); conditions: A549, 0.1–0.6 μM, 6 h exposure, lipoate reduction over 180 min
Experimental: Briefly, plateau phase A549 cells were exposed to variable doses of complexes 1, 3, 4[H][Cl], a 2 : 1 molar ratio of 4[H][Cl] and 5 (cocktail), auranofin, and doxorubicin for 6 h. Post treatment, the live cells were monitored colorimetrically over 180 min for their ability to reduce lipoate (Fig. 8a).

A2780 ovarian = assay: Cell proliferation (MTT assay) in A2780 ovarian cells; assay type: cell-based, human; conditions: wt-p53, platinum sensitive; Table 3
Experimental: (§1) Further anti-proliferation studies were carried out with complex 1 and its naphthoquinone component 4[H][Cl] using the following cell lines: A2780 ovarian (a wt-p53 cell line sensitive to platinum treatment), 2780CP ovarian (isogenic to A2780 but expressing multi-drug resistance (MDR)), and PC-3 prostate (p53 null) (Table 3).
(§2) Biological preparations and assays
(§3) Experimental compound preparation. Stock solutions of complexes 1–3, 4[H][Cl], auranofin (Tocris Bioscience 4600), and doxorubicin (Tocris Bioscience 2252) were dissolved in DMSO (2.5–10 mM, depending on the compound and its solubility), aliquoted, and stored at -80 °C prior to use.
(§4) Biological Materials and Cell Lines. Cell lines were obtained from the ATCC (A549 and PC-3) and Prof.
(§5) Zahid Siddik at M.D. Anderson Cancer Center (A2780 and A2780CP). Cell culture plastic ware (i.e. T-75 flasks, treated 6-well plates, treated 96-well plates, and cell scrapers) were obtained from Fisher Scientific. […]
(§6) were made. […] The medium was then removed, the resulting formazan was dissolved in […] DMSO and the respective absorbances were measured at 560–650 nm using a microplate reader (Molecular Devices, Sunnyvale, CA). Absorbance values were corrected for background and then normalized to wells containing untreated cells to allow for plate-to-plate comparisons. […]

A549 cells [5] = assay: Apoptosis by annexin-V/PI flow cytometry; assay type: cell-based, human; conditions: A549, 1.25–20 μM, 24 h
[6] = system: A549 xenografts in zebrafish embryos; assay: Zebrafish A549 tumor xenograft efficacy; assay type: in vivo; conditions: 0.5 μM, 48 to 72 hpf
Experimental: The anticancer activity of the complex 1 was tested using a qualitative high throughput zebrafish tumor xenograft model (IACUC # I13009).[74] First, zebrafish embryos were divided into 7 groups at an average of 65 embryos per group. Each group was treated with vehicle (DMSO) or complex 1 at variable concentrations to identify the maximum tolerable dose (MTD) (Fig. S29 ^†). […] Therefore, efficacy studies, using zebrafish bearing human tumor xenografts were carried out with complex 1 being administered at the 0.5 μM concentration level.[75]–[77] Briefly, live human lung cancer cells (A549) were labeled with CM-DiI (red) and only live cells were transplanted via injection into the perivitelline space of 30 zebrafish embryos 24 hours post fertilization (hpf).[74],[78],[79] Tumor inoculated zebrafish embryos were allowed to grow for one day till 48 hpf. This allows for establishment of the cancer cells in the host zebrafish embryos. At 48 hpf, the xenograft bearing zebrafish embryos were split into 2 groups (15 embryos per group) and treated with vehicle (DMSO) or complex 1 at 0.5 μM for one additional day (72 hpf), and cancer cell death was observed using acridine orange staining (green). Live zebrafish-A549 tumor xenografts treated with DMSO display features consistent with the presence of tumor cells (red, white arrows in Fig. 10A). […]

A549 lung cancer cells [7] = assay: Cell proliferation (MTT assay) in A549 lung cancer cells; assay type: cell-based, human
Experimental: To gauge the ability of each complex to inhibit cancer cell growth, A549 lung cancer cells were treated with 1–3, 4[H][Cl], doxorubicin, and auranofin in a dose responsive manner. Cellular vitality (i.e., mitochondrial reductase activity) was then quantified colorimetrically post treatment using 3-(4,5-dimethylthiazol-2-yl)-2,5-diphenyltetrazolium bromide (MTT assay) (Table 2, Fig. 5).
as §2, §3, §4
Zahid Siddik at M.D. Anderson Cancer Center (A2780 and A2780CP). Cell culture plastic ware (i.e. T-75 flasks, treated 6-well plates, treated 96-well plates, and cell scrapers) were obtained from Fisher Scientific. Cell were cultured in RPMI 1640 culture medium (+2mM glutamine, +25mM HEPES, Corning 10041cv) supplemented with 10% heat-inactivated fetal bovine serum (RMBIO FBS-BBT) and 1X penicillin-streptomycin (Sigma p4333). Unless otherwise noted, incubators were set to 37°C and 5% CO2.
Trypsin (HyClone SH30236.01) and 1X Phosphate Buffered Saline (HyClone SH30258.02, diluted in autoclaved deionized water) were utilized for general cell line maintenance and harvesting. Trace Metal […]
Cell Proliferation Studies. Cells were harvested and seeded into 96-well culture plates (Costar 07-200-90) in 100µL of culture media. They were allowed to incubate overnight at 37 °C in the presence of 5% CO2. […]
and PC-3 at 2000 cells/well. […]
were made. To each well of a 96 well plate was added 100 µL of the appropriate solution. After a total of three days, a […] aliquot of 3 mg/mL tetrazolium dye, 3-(4,5-dimethylthiazol-2-yl)-2,5-diphenyltetrazolium bromide (Alfa Aesar L11939) was added to each well, followed by a 4 hr incubation period at 37 °C. The medium was then removed, the resulting formazan was dissolved in […] DMSO and the respective absorbances were measured at 560–650 nm using a microplate reader (Molecular Devices, Sunnyvale, CA). Absorbance values were corrected for background and then normalized to wells containing untreated cells to allow for plate-to-plate comparisons. The data are shown as mean inhibition of proliferation or growth as a percentage of control cells and are from 2–3 replicate experiments. Resulting dose response curves were subjected to linear regression analysis (Origin by OriginLab, Inc.) for determination of IC50 values.

PC-3 prostate = assay: Cell proliferation (MTT assay) in PC-3 prostate cells; assay type: cell-based, human; conditions: p53 null; Table 3
Experimental: as §1, §2, §3, §4, §5, §6

SMILES: Cc1cc(C)c(-n2c3c(n(-c4c(C)cc(C)cc4C)[c]2=[Au-]=[c]2n(-c4c(C)cc(C)cc4C)c4c(n2-c2c(C)cc(C)cc2C)C(=O)c2ccccc2C4=O)C(=O)c2ccccc2C3=O)c(C)c1.[Cl][Ag-][Cl] [Complex 1, [bis(1,3-dimesityl-4,5-naphthoquino-imidazol-2-ylidene)-gold(I)] [silver(I)dichloride]]
- Increase in intracellular ROS (fluorescence cell population shift) (A549 cells [1]): 27 fold
- Subcellular locus of ROS accentuation (A549 cancer cells): ROS accentuation is arising from mitochondria
- Intracellular Au levels (uptake), in words (A549 lung cancer cells [2]): identical
- Thermal stabilization of DNA [3]: no thermal stabilization
- Inhibition of TrxR at low concentrations [4]: inhibition of TrxR was apparent
- IC50 (A2780 ovarian): 26 ± 7 nM
- Mechanism of cell death (A549 cells [5]): induces controlled cell death via an apoptotic mechanism
- Tumor cell death in xenografts (acridine orange staining) [6]: evidence of apoptosis for the majority of tumor cells
- Fold difference relative to 1 (A549 lung cancer cells [7]; A549, ratio of IC50 to that of 1 (Table 2)): 1
- IC50 (A549 lung cancer cells [7]; A549 lung cancer cells, MTT, 72 h, read-out: IC50): 73 nM
- IC50 (A549 lung cancer cells [7]; Table 3, error = standard error from the mean, read-out: IC50 A549 lung): 73 ± 16 nM
- IC50 (PC-3 prostate): 96 ± 17 nM
